These results are taken from patent US12459922B2 (Gilead Sciences, Inc., priority 2022, dated 2025).

The target in one assay is T1, PARP7 (Homo sapiens, UniProt Q7Z3E1).
T1 sequence (Q7Z3E1 1-657): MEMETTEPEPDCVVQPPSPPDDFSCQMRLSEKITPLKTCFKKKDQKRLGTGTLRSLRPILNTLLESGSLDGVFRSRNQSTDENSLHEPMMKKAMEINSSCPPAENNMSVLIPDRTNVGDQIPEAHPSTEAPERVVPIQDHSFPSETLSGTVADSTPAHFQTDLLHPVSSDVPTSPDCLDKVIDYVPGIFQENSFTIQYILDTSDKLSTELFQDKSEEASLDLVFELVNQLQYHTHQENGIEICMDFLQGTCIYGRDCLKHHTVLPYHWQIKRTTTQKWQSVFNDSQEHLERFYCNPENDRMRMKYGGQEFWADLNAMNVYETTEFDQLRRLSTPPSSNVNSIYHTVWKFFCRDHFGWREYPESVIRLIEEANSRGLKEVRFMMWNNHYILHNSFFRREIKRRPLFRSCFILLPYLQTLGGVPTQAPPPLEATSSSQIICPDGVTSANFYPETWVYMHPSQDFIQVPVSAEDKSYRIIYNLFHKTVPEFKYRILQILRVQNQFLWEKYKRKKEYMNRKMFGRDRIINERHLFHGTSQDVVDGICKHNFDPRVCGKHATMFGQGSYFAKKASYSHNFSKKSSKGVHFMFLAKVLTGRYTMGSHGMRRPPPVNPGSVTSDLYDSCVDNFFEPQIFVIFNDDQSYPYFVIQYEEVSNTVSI
As to the kind of experiment: Probe Displacement Assay for PARP7 (MSD electrochemiluminescent, biotinylated probe RBNO11147). Conditions: displacement of biotinylated probe RBNO11147 from PARP7 NAD+-binding site; read-out: MSD ProbeDisp PARP7 IC50.

Assay [1] deals with endogenous cellular STAT1 (phosphorylated at Tyr701) in NCI-H1373 cells. Kind of assay: Phospho-STAT1 (Tyr701) LANCE Ultra TR-FRET Detection Assay. Conditions: Homo sapiens, NCI-H1373, 48 h, phospho-STAT1 (Tyr701) induction, read-out: NH1373 pSTAT1 EC50. It counts as cell-based.

Experimental for PARP7: Displacement of a biotinylated probe (RBNO11147; Wigle et al., Cell Chemical Biology, 2020, pp. 877-887) from the PARP7 NAD+-binding site was measured in vitro using a Mesoscale Discovery electrochemiluminescent assay. […] Next, 10 ml of 10 nM PARP7 protein incubated for 1 hour at room temperature with a dose response curve of each test compound in a Greiner LDV polypropylene plate (#781201) is added to the MSD plate containing the immobilized probe. The interaction is allowed to reach equilibrium for 1.5 hours, and then 10 ml of SULFO-TAG labeled anti-GST antibody (Cat #R32AA-1) is added to each well and allowed to incubate for an additional 1.5 hours at room temperature. Finally, 10 ml of MSD read buffer T (4×, Cat. #R92C-1) is added to each well using a Bravo liquid handler to prevent air bubbles in the wells, and the plates are subsequently read in an MSD instrument. Light intensity is then measured to quantify the amount of PARP7 bound to the immobilized probe on the plate.

In general, IC50 refers to the point on the concentration scale where inhibition reaches its midpoint. As a reminder, the EC50 is the concentration at which the effect is half-maximal. Regarding `C[C@@H](CCCn1ccc2c(F)c(-c3ncc(C(F)(F)F)cn3)ccc2c1=O)Nc1cn[nH]c(=O)c1C(F)(F)F` [Example 6, 5-fluoro-2-[(4S)-4-[[6-oxo-5-(trifluoromethyl)-1H-pyridazin-4-yl]amino]pentyl]-6-[5-(trifluoromethyl)pyrimidin-2-yl]isoquinolin-1-one], the IC50 on PARP7 was determined as 0.7 nM. The EC50 in assay [1] came to 434 nM.

With `C[C@@H](CCCn1ccc2cc(-c3ccc(C#N)cn3)cc(F)c2c1=O)Nc1cn[nH]c(=O)c1C(F)(F)F` [Example 18, (S)-6-(8-fluoro-1-oxo-2-(4-((6-oxo-5-(trifluoromethyl)-1,6-dihydropyridazin-4-yl)amino)pentyl)-1,2-dihydroisoquinolin-6-yl)nicotinonitrile], at PARP7, the IC50 was determined as 0.4 nM. In assay [1], the EC50 came to 164 nM.

Regarding `C[C@@H](CCCn1ccc2cc(-c3cnc(C#N)cn3)c(F)cc2c1=O)Nc1cn[nH]c(=O)c1C(F)(F)F` [Example 23, (S)-5-(7-fluoro-1-oxo-2-(4-((6-oxo-5-(trifluoromethyl)-1,6-dihydropyridazin-4-yl)amino)pentyl)-1,2-dihydroisoquinolin-6-yl)pyrazine-2-carbonitrile], the IC50 at PARP7 was 0.4 nM. Further, the EC50 in assay [1] came out at 2300 nM.

Regarding `C[C@@H](CCCn1ccc2cc(-c3ncc(OC(F)F)cn3)c(F)c(F)c2c1=O)Nc1cn[nH]c(=O)c1C(F)(F)F` [Example 56, (S)-6-(5-(difluoromethoxy)pyrimidin-2-yl)-7,8-difluoro-2-(4-((6-oxo-5-(trifluoromethyl)-1,6-dihydropyridazin-4-yl)amino)pentyl)isoquinolin-1(2H)-one], the IC50 on PARP7 was found to be 0.579 nM. The EC50 in assay [1] was found to be 67.2 nM.

`C[C@@H](CCCn1ccc2cc(-c3ncc4c(n3)NC(=O)CO4)c(F)cc2c1=O)Nc1cn[nH]c(=O)c1C(F)(F)F` [Example 185, (S)-2-(7-fluoro-1-oxo-2-(4-((6-oxo-5-(trifluoromethyl)-1,6-dihydropyridazin-4-yl)amino)pentyl)-1,2-dihydroisoquinolin-6-yl)-6H-pyrimido[5,4-b][1,4]oxazin-7(8H)-one]: on PARP7, the IC50 is 0.11 nM. In addition, the EC50 in assay [1] stood at 1750 nM.

In the case of `C[C@@H](CCCn1ccc2cc(-c3nc4ccccc4s3)c(F)cc2c1=O)Nc1cn[nH]c(=O)c1C(F)(F)F` [Example 308, (S)-6-(benzo[d]thiazol-2-yl)-7-fluoro-2-(4-((6-oxo-5-(trifluoromethyl)-1,6-dihydropyridazin-4-yl)amino)pentyl)isoquinolin-1(2H)-one], the IC50 at PARP7 worked out at 0.387 nM. Further, in assay [1], the EC50 worked out at 35.8 nM.

Consider `C[C@@H](CCCn1ccc2cc(-c3ccc(S(C)(=N)=O)cn3)cc(F)c2c1=O)Nc1cn[nH]c(=O)c1C(F)(F)F` (stereo partly drawn) [Example 40, 8-fluoro-6-[5-(methylsulfonimidoyl)-2-pyridyl]-2-[(4S)-4-[[6-oxo-5-(trifluoromethyl)-1H-pyridazin-4-yl]amino]pentyl]isoquinolin-1-one], for which, at PARP7, the IC50 was 2.7 nM. The EC50 in assay [1] came out at 10000 nM.

Regarding `C[C@@H](CCCn1ccc2cc(-c3ccc(F)cn3)c(F)c(F)c2c1=O)Nc1cn[nH]c(=O)c1C(F)(F)F` [Example 52, (S)-7,8-difluoro-6-(5-fluoropyridin-2-yl)-2-(4-((6-oxo-5-(trifluoromethyl)-1,6-dihydropyridazin-4-yl)amino)pentyl)isoquinolin-1(2H)-one], at PARP7, the IC50 came out at 0.763 nM. Besides, the EC50 in assay [1] was determined as 164 nM.

Consider `C[C@@H](CCCn1ccc2cc(-c3ccc(C(F)(F)F)cn3)c(F)cc2c1=O)Nc1cn[nH]c(=O)c1C(F)(F)F` [Example 9, 7-fluoro-2-[(4S)-4-[[6-oxo-5-(trifluoromethyl)-1H-pyridazin-4-yl]amino]pentyl]-6-[5-(trifluoromethyl)-2-pyridyl]isoquinolin-1-one], for which the IC50 at PARP7 is 0.4 nM. The EC50 in assay [1] turned out to be 92.1 nM.

Regarding `C[C@@H](CCCn1ccc2cc(-c3ncc(C(F)(F)F)s3)c(F)cc2c1=O)Nc1cn[nH]c(=O)c1C(F)(F)F` [Example 309, (S)-7-fluoro-2-(4-((6-oxo-5-(trifluoromethyl)-1,6-dihydropyridazin-4-yl)amino)pentyl)-6-(5-(trifluoromethyl)thiazol-2-yl)isoquinolin-1(2H)-one], the IC50 at PARP7 was determined as 0.258 nM. Moreover, in assay [1], the EC50 is 149 nM.

Consider `C[C@@H](CCCn1ccc2cc(-c3ncc(C(F)(F)F)cn3)cc(F)c2c1=O)Nc1cn[nH]c(=O)c1C(F)(F)F` [Example 7, 8-fluoro-2-[(4S)-4-[[6-oxo-5-(trifluoromethyl)-1H-pyridazin-4-yl]amino]pentyl]-6-[5-(trifluoromethyl)pyrimidin-2-yl]isoquinolin-1-one], for which the concentration for half-maximal inhibition (IC50) on PARP7 was determined as 0.3 nM. In addition, the EC50 in assay [1] is 61.3 nM.

In the case of `C[C@@H](CCCn1ccc2cc(-c3ccc(OC(F)F)cn3)cc(F)c2c1=O)Nc1cn[nH]c(=O)c1C(F)(F)F` [Example 17, (S)-6-(5-(difluoromethoxy)pyridin-2-yl)-8-fluoro-2-(4-((6-oxo-5-(trifluoromethyl)-1,6-dihydropyridazin-4-yl)amino)pentyl)isoquinolin-1(2H)-one], the IC50 at PARP7 was 0.4 nM. The EC50 in assay [1] amounted to 117 nM.

As to `C[C@@H](CCCn1ccc2cc(-c3ncc(OC(F)F)cn3)c(F)cc2c1=O)Nc1cn[nH]c(=O)c1C(F)(F)F` [Example 42, 6-[5-(difluoromethoxy)pyrimidin-2-yl]-7-fluoro-2-[(4S)-4-[[6-oxo-5-(trifluoromethyl)-1H-pyridazin-4-yl]amino]pentyl]isoquinolin-1-one], the IC50 at PARP7 was 1 nM. Also, the EC50 in assay [1] was 133 nM.

Consider `C[C@@H](CCCn1cnc2cc(-c3ccc(C(F)(F)F)cn3)c(F)cc2c1=O)Nc1cn[nH]c(=O)c1C(F)(F)F` [Example 58, (S)-6-fluoro-3-(4-((6-oxo-5-(trifluoromethyl)-1,6-dihydropyridazin-4-yl)amino)pentyl)-7-(5-(trifluoromethyl)pyridin-2-yl)quinazolin-4(3H)-one], for which, at PARP7, the IC50 was determined as 0.484 nM. Further, the EC50 in assay [1] was 124 nM.

Regarding `C[C@@H](CCCn1ccc2cc(-c3ccc(C4(C#N)CC4)cn3)cc(F)c2c1=O)Nc1cn[nH]c(=O)c1C(F)(F)F` [Example 38, 1-[6-[8-fluoro-1-oxo-2-[(4S)-4-[[6-oxo-5-(trifluoromethyl)-1H-pyridazin-4-yl]amino]pentyl]-6-isoquinolyl]-3-pyridyl]cyclopropanecarbonitrile], at PARP7, the IC50 is 0.3 nM. In addition, the EC50 in assay [1] was determined as 579 nM.

Take `C[C@@H](CCCn1ccc2cc(-c3ccc(C#N)cn3)c(F)cc2c1=O)Nc1cn[nH]c(=O)c1C(F)(F)F` [Example 25, (S)-6-(7-fluoro-1-oxo-2-(4-((6-oxo-5-(trifluoromethyl)-1,6-dihydropyridazin-4-yl)amino)pentyl)-1,2-dihydroisoquinolin-6-yl)nicotinonitrile]: the IC50 at PARP7 was 0.6 nM. For the same compound, the EC50 in assay [1] was found to be 136 nM.

Take `C[C@@H](CCCn1ccc2cc(-c3ccc(OC(F)F)cn3)c(F)cc2c1=O)Nc1cn[nH]c(=O)c1C(F)(F)F` [Example 43, 6-[5-(difluoromethoxy)-2-pyridyl]-7-fluoro-2-[(4S)-4-[[6-oxo-5-(trifluoromethyl)-1H-pyridazin-4-yl]amino]pentyl]isoquinolin-1-one]: the IC50 at PARP7 is 0.76 nM. Moreover, the EC50 in assay [1] was 311 nM.

On to `C[C@@H](CCCn1ccc2cc(-c3ccc(CC(F)(F)F)cn3)cc(F)c2c1=O)Nc1cn[nH]c(=O)c1C(F)(F)F` [Example 41, 8-fluoro-2-[(4S)-4-[[6-oxo-5-(trifluoromethyl)-1H-pyridazin-4-yl]amino]pentyl]-6-[5-(2,2,2-trifluoroethyl)-2-pyridyl]isoquinolin-1-one], for which, on PARP7, the IC50 was found to be 3.7 nM. In addition, the EC50 in assay [1] came out at 144 nM.

For the compound `O=c1[nH]ncc(NC2(CCCn3ccc4cc(-c5ncc(C(F)(F)F)cn5)c(F)cc4c3=O)CC2)c1C(F)(F)F` [Example 61, 7-fluoro-2-(3-(1-((6-oxo-5-(trifluoromethyl)-1,6-dihydropyridazin-4-yl)amino)cyclopropyl)propyl)-6-(5-(trifluoromethyl)pyrimidin-2-yl)isoquinolin-1(2H)-one], on PARP7, the IC50 was determined as 1.27 nM. Besides, the EC50 in assay [1] was found to be 638 nM.

Take `C[C@@H](CCCn1ccc2cc(-c3ncc(C(F)F)cn3)c(F)c(F)c2c1=O)Nc1cn[nH]c(=O)c1C(F)(F)F` [Example 53, (S)-6-(5-(difluoromethyl)pyrimidin-2-yl)-7,8-difluoro-2-(4-((6-oxo-5-(trifluoromethyl)-1,6-dihydropyridazin-4-yl)amino)pentyl)isoquinolin-1(2H)-one]: the IC50 on PARP7 came out at 0.496 nM. Also, the EC50 in assay [1] is 17 nM.

On to `Cc1cn(CCC[C@H](C)Nc2cn[nH]c(=O)c2C(F)(F)F)c(=O)c2ccc(-c3ncc(C(F)(F)F)cn3)cc12` [Example 46, 4-methyl-2-[(4S)-4-[[6-oxo-5-(trifluoromethyl)-1H-pyridazin-4-yl]amino]pentyl]-6-[5-(trifluoromethyl)pyrimidin-2-yl]isoquinolin-1-one], for which the concentration for half-maximal inhibition (IC50) on PARP7 stood at 0.824 nM. For the same compound, in assay [1], the EC50 amounted to 432 nM.
